Values joined by “and” are separate entries in the source; they are usually repeats but may differ in a detail not shown here. Equal values may be shown once.
Key:
PARP1–HPF1 complex [1] = molecular target: T1, PARP1–HPF1 complex (Homo sapiens, UniProt P09874+Q9NWY4); test: FP assay of PARP1–HPF1–DNA complex, PARP-directed library screen; assay type: biochemical
T1 construct: made in house
Method: An Opentrons OT-2 robot was used for all the pipetting steps as described. First, 20 μL of binding buffer was placed into each well of the 384-well assay plate. Next, 10 μL of the pre-formed complex of PARP1 - HPF1 - DNA or PARP2 – HPF1 – DNA (prepared in binding buffer) was added to all wells. Next, 1 μL of the inhibitors from the 12-point dilution were added to the 384-well plate and was incubated with the protein - DNA for 30 min at room temperature (RT). The plate was then transferred to BMG Labtech CLARIOstar plate reader equipped with a syringe injector. The injector was used to add 10 μL of NAD^+ into all wells except for eight control wells. […] Final concentrations were 5 nM p18mer (fluorescein-labeled), 10 nM PARP1/2, 200 nM HPF1, 200 μM NAD^+, and 0.09 μM – 200 μM inhibitor. IC50 values were calculated using a nonlinear regression analysis (sigmoidal dose-response fitting with variable slope) with the following equation: Y = Bottom + (Top – Bottom)/(1 + 10(LOGIC50 – X) · HILL SLOPE) using GraphPad Prism.
We base our assay method on our previously described fluorescence polarization (FP) assay for measuring the activity of PARP1 [15]. […] (Fig. 2A). For the inhibition assay, the complex is incubated with potential inhibitors and the PARylation reaction is initiated by the addition of NAD^+. […]

[2] = test system: PAR in the nucleus of SUM149PT cells; test: PAR immunofluorescence in SUM149PT cells with MMS; assay type: cell-based; details: 10 and 12.5 μM, 5 h, 0.01 % MMS; for amount of PAR in the nucleus: p<0.05 for 145 and 88, p<0.001 for 4
Method: 18,000 SUM149PT cells were seeded into a 96 well PhenoPlate (Revvity) and allowed to adhere overnight. Cells were then treated with the selected hits at a concentration of 10 or 12.5 μM and 0.01 % final concentration of MMS for 5 h. The medium was then aspirated, and cells were fixed with 4 % paraformaldehyde for 15 min at room temperature (RT). After washing twice with PBS, cells were incubated with 0.3 % Triton X-100 for 15 min followed by another washing step. To decrease unspecific binding of the antibodies, cells were blocked in 5 % milk for 30 min at RT. Afterwards, cells were incubated with the anti-PAR primary antibody at a 1:1000 dilution for 2 h at RT. Cells were washed again and incubated with a goat anti-mouse AlexaFluor 647 secondary antibody at a 1:500 dilution for […] at RT. Finally, cells were washed, stained with Hoechst 33342 (1:1000), and imaged using a 40x water objective on the Phenix Plus High-Content Screening (HCS) System (Revvity). Each bar graph is representative of two experiments, each with three replicates of whole-well analysis per condition. The reported data represents the average of each cell within the replicates, plotted with standard deviation error bars.

SUM149PT tumor organoids = test: Tumor organoid cytotoxicity, CellTiter-Glo 3D; assay type: cell-based; details: Homo sapiens, 96 h, read-out: IC50 tumor organoid viability
Method: SUM149PT cells were plated at 2000 cells/well into 96-well Clear Round Bottom Ultra-Low Attachment plates (Cat. No. 7007, Corning, Corning, NY) in complete growth medium. Cell assay plates were centrifuged at 1000 RPM for 15 min to promote cellular aggregation, then 25 μL of cold Growth-Factor Reduced (GFR) Matrigel (10 %) was added per well for a final concentration of 2 %. […] Briefly, tumor organoids were transferred to 96-well CELLSTAR white solid bottom plates (Cat. No. 655083, Greiner Bio-One, Monroe, NC), 40 μL (1:1) of CellTiter-Glo 3D was added to each well and plates were then placed on an orbital shaker at 450 RPM for 45 min at room temperature. CellTiter-Glo 3D’s luminescence signal was assessed using the Envision microplate reader (Revvity, Waltham, MA) with a measurement time of 100 ms. The experiment was done with triplicate organoids per condition, and IC50.values were calculated as described above.

PARP1–HPF1 complex [3] = molecular target: T1, PARP1–HPF1 complex; test: FP assay of PARP1–HPF1–DNA complex, dose response of hits from the 10,000 compound pilot HTS; assay type: biochemical; details: dose response of HTS hits in duplicate; 10 nM PARP1, 100 nM HPF1, 15 min
Method: A Revvity G3 Explorer collaborative robot equipped with a freezer containing the drug library, a Revvity Janus liquid handler, and a Revvity Envision was used to carry out the screen. A ChemBridge diversity library containing 10,000 compounds was used for screening. Two identical daughter plates (2 mM) were generated, one for HTS and one for cherry-picking hits identified from HTS. The drug library was maintained in a LiCONiC STX500-DF Deep Freezer at −20 °C with 80 % N2. Binding buffer (13 μL) with 0.04 % DMSO was added to columns 23 and 24 of 32 384-well plates (Corning 3575). Next, 24.5 μL binding buffer was added to all wells on the plates. Then, 0.5 μL of 2 mM stock solutions for each of the 10,000 compounds was added to separate wells, giving a final concentration of 20 μM, excluding columns 1, 2, 23, and 24. Afterwards, 12.5 μL premix (PARP1 – HPF1 – DNA, at 10 nM PARP1, 100 nM HPF1, and 5 nM FITC-labeled p18mer DNA) was added to all wells. Next, 12.5 μL of 2 mM NAD^+ was added to each well.
Dose response curves for the hits were performed using the same Revvity robot system as for the initial screen. Binding buffer (13 μL) with 0.04 % DMSO was added to columns 23 and 24 of 32 different Corning (Cat. No. 3575) plates. Next, 25 μL binding buffer was added to all wells on the plates. Cherry-picked compound plates generated from the compound source used in the initial HTS were used to add 1 compound per column from 20 to 160 nM in duplicate with 2x serial dilution using a Revvity FlexDrop iQ instrument. A 12.5 μL premix (PARP1 – HPF1 – DNA, as above) was added to all wells. Afterwards, 12.5 μL of 2 mM NAD^+ was added to each well and plates were incubated for 15 min at RT. The FP signal was read as above, and data for screened compounds was normalized between 100 % (positive control, […]) and 0 % (negative control, rows 1 and 2). Dose response curves were plotted and fit using GraphPad Prism with a non-linear regression analysis as described above.

cancer cells = test system: cancer cells; design: method as in PMID 35259019; details: read-out: IC50 cytotoxic activity; cited from earlier work

T1 sequence (P09874 whole entry): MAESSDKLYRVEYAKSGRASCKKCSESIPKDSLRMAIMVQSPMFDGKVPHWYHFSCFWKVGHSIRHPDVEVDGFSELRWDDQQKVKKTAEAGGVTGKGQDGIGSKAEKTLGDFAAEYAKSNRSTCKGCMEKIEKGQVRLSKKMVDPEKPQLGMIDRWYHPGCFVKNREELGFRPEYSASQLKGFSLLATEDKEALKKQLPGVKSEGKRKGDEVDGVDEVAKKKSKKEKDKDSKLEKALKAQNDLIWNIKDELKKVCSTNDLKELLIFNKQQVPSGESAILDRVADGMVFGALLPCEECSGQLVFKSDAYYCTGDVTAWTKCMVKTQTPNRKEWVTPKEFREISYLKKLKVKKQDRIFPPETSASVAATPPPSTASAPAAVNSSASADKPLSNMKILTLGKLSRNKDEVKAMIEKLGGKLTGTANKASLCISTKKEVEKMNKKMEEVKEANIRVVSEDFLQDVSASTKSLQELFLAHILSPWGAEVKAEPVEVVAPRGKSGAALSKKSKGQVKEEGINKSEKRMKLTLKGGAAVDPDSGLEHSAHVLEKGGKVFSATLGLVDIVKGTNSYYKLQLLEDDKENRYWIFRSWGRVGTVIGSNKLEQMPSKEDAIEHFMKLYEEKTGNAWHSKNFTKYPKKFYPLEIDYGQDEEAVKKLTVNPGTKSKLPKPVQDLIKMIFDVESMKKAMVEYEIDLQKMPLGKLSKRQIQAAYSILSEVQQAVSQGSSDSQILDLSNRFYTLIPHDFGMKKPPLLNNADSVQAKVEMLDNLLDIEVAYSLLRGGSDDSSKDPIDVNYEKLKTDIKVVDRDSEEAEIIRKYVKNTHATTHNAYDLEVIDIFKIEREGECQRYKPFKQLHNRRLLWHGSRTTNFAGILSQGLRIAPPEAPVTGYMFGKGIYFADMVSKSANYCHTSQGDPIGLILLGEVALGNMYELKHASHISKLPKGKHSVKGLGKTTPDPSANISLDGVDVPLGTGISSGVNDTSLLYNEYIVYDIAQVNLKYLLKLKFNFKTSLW
T1 sequence (Q9NWY4 whole entry): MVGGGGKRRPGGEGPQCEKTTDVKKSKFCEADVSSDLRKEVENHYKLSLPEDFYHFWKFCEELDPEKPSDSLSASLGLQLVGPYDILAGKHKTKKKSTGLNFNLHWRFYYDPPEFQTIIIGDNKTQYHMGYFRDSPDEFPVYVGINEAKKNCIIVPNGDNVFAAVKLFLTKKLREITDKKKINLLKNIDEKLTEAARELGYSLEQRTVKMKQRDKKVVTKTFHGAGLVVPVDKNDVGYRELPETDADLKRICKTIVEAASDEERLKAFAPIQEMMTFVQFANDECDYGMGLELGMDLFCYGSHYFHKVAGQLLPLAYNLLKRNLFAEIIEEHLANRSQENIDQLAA

Row | Compound | inhibition of PARylation [2] | amount of PAR in the nucleus [2] | IC50 (PARP1–HPF1 complex [3]) | also measured
1 | NC(=O)c1ccccc1 [benzamide, reference compound] | – | – | – | IC50 (PARP1–HPF1 complex [1]): 14 µM
2 | O=C(COc1ccccc1)c1cn(CC(=O)N2CCOCC2)c2ccccc12 [compound 4] | dose-dependent inhibition of PARylation | reduced PAR at all doses | ~1 µM and 1.07 µM | IC50 (SUM149PT tumor organoids): 251 µM
3 | CCNCC#CCOc1ccc(Br)cc1 [compound 60] | – | – | 7.77 µM | –
4 | COc1cccc(-c2nc(CC(=O)Nc3ccc(C)c(C)c3)no2)c1 [compound 88] | dose-dependent inhibition of PARylation | decreased the amount of PAR in the nucleus at the higher dose tested | 13.5 µM | –
5 | CCNCC#CCOc1cccc(C(F)(F)F)c1 [compound 89] | – | – | 13.8 µM | –
6 | CNCC#CCOc1ccc(Cl)c(C)c1 [compound 110] | – | – | 20.4 µM | –
7 | CCNC/C=C/COc1ccccc1OCC [compound 116] | – | – | 22.6 µM | –
8 | N#Cc1c(NC(=O)C#Cc2ccccc2)sc2c1CCC2 [compound 145] | dose-dependent inhibition of PARylation | decreased the amount of PAR in the nucleus at the higher dose tested | 36.8 µM | –
9 | N#Cc1sc2nc(-c3ccc(F)cc3F)ccc2c1N [compound 151] | – | – | 40.7 µM | –
10 | O=C(c1cc(Cc2n[nH]c(=O)c3ccccc23)ccc1F)N1CCN(C(=O)C2CC2)CC1 [olaparib, reference compound] | – | – | – | IC50 (SUM149PT tumor organoids): 85 µM; IC50 (cancer cells): > 50 µM

— publication PMC10872402, “HTS discovery of PARP1-HPF1 complex inhibitors in cancer” (SLAS discovery : advancing life sciences R & D, 2023)
